Experimental data published in patent US20090131331A1 (DSM IP ASSETS B.V., priority 2005, published 2009).
pIC50: −log10 of the molar value. One block for each substance: values may come before it.

Legend:
[1] = test system: ACE (enzyme obtained from Sigma); assay: ACE in phosphate buffered saline (PBS) pH 7.4 with a chloride concentration of 260 mM; conditions: 50° C., up to 60 minutes
ACE [2] = assay: at-line ACE inhibition assay; format: biochemical
Experimental: For the at-line ACE inhibition assay 27 μl of a 33.4 mU ml^−1 ACE (enzyme obtained from Sigma) in phosphate buffered saline (PBS) pH 7.4 with a chloride concentration of 260 mM was added and the mixture was allowed to incubate for 5 minutes on a 96 well plate mixer at 700 RPM. After the incubation period 13 μl of a 0.35 mM hippuric acid-histidine leucine (HHL) solution in PBS buffer was added and mixed for 1 minute at 700 RPM. The mixture was allowed to react for 60 minutes at 50° C. in a GC-oven. After the reaction the plate was cooled in melting ice.
The 96 well plate was then analysed on a flash-HPLC-column. Of the reaction mixture of each well 30 μl was injected on a Chromlith Flash RP18e 25×4.6 mm HPLC column (Merck, Darmstadt, Germany) equipped with a 10×4.6 mm RP18e guard column from the same supplier. The isocratic mobile phase consisted of a 0.1% solution of TFA in water/acetonitrile 79/21. […] Hippuric acid (H) and HHL were monitored at 280 nm. The peak heights of H and HHL were measured and the ACE inhibition (ACEI) of each fraction was calculated according to the equation: […]
• DCw Degree of Cleavage by ACE of HHL to H and HL in water • DCa Degree of Cleavage of HHL to H and HL for the analyte The Degree of Cleavage was calculated by expressing the peak height of H as a fraction of the sum of the peak heights of H and HHL.

ACE [3] = assay: modified Matsui ACE inhibition assay; format: biochemical; conditions: as stated in description text; read-out: IC50 value in the Modified Matsui test
Experimental: To determine the ACE inhibition activity of MAP and ITP, the chemically synthesised tripeptides were assayed according to the method of Matsui et al. (Matsui, T. et al. (1992) Biosci. Biotech. Biochem. 56: 517-518) with some minor modifications.
Each one of the four samples contained 75 μl 3 mM hippuryl histidine leucine (Hip-His-Leu, Sigma) dissolved in a 250 mM borate solution containing 200 mM NaCl, pH 8.3. ACE was obtained from Sigma. The mixtures were incubated at 37° C. and stopped after 30 min by adding 125 μl 0.5 M HCl. […] After incubation for 20 min. at 37° C., 4 ml 4 mM Na2SO3 in 0.2 M NaH2PO4 was added and the light absorbance at 416 nm was measured with UV/Vis spectrophotometer (Shimadzu UV-1601 with a CPS controller, Netherlands).
The amount of ACE inhibition (ACEI) activity was calculated as a percentage of inhibition compared with the conversion rate of ACE in the absence of an inhibitor according to the following formula: […]
Control 1=Absorbance without ACE inhibitory component (=max. ACE activity) [AU]. Control 2=Absorbance without ACE inhibitory component and without ACE (background) [AU]. Sample1=Absorbance in the presence of ACE and the ACE inhibitory component [AU]. Sample 2=Absorbance in the presence of the ACE inhibitory component, but without ACE [AU]. […]

ACE [4] = target: ACE (Homo sapiens, UniProt P12821); conditions: literature (Nakamura 1995; Aryoshi 1993); read-out: IC50 reported earlier as ACE inhibiting peptides; cited from earlier work
[5] = test system: pepsin (Fluka order no. 77161); 8 times USP pancreatin (Sigma order no. P7545); assay: simulated human gastro-intestinal tract (GIT procedure): pepsin with falling pH, then pancreatin up to pH 7.1; conditions: 37.5° C., up to t=125 min

Sequence of ACE (Homo sapiens, UniProt P12821) (P12821 30-1306, species assumed): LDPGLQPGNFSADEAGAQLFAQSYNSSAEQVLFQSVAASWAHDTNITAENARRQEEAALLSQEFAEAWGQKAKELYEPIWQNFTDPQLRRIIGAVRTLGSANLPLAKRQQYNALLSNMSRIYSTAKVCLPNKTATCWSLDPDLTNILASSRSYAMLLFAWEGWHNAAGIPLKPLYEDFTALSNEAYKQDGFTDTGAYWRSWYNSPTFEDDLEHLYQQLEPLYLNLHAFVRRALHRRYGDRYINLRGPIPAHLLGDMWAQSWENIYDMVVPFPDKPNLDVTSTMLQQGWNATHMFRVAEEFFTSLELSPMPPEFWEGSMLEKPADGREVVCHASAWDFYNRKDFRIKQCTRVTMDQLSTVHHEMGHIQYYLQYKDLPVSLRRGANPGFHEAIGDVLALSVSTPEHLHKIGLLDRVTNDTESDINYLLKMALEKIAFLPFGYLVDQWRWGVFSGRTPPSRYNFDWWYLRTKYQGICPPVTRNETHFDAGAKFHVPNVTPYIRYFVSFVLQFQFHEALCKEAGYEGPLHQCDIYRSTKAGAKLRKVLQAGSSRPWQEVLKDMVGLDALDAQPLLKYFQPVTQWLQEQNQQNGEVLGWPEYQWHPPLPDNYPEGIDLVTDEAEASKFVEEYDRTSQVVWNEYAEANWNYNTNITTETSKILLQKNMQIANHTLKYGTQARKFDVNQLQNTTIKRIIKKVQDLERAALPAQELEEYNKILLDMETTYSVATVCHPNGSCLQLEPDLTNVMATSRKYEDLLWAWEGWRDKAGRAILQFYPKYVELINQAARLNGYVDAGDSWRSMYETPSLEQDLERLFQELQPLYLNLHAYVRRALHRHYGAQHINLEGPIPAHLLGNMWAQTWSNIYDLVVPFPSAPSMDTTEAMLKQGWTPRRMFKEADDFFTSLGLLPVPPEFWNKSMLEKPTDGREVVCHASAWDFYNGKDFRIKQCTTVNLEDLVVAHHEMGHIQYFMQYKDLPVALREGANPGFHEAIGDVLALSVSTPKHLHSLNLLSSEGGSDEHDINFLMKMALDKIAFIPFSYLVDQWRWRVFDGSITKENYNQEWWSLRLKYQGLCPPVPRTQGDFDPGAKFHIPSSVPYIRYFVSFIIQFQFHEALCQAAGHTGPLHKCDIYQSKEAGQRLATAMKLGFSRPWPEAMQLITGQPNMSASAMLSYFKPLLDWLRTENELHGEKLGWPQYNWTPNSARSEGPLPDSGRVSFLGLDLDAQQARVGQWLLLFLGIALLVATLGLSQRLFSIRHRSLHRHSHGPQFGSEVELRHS

cleaved bond [1]: Hip-His
Substance: Hip-His-Leu

pIC50 (ACE [2]): 5.15 | pIC50 (ACE [3]): 5.70
Substance: IPP: known ACE inhibiting tripeptide, kappa-casein f 108-110; chemically synthesized internal reference
pIC50 (ACE [4]): 5.30

Substance: Met-Ala-Pro
amount per gram powder before and after GIT [5]: 2851.4 μg g^−1 powder before, 3095.8 after GIT

Substance: LPP: known ACE inhibiting tripeptide, β-casein f151-153 (UniProt P02666 166-168, looked up, fragment)
pIC50 (ACE [4]): 5.02
